Assay [1] deals with hypoxia-induced VEGF production in HeLa cells. In words: cells. To be noted: Homo sapiens, HeLa. Type of assay: cell-based, human.
Another assay relates to HT1080 xenografts. Description: HT1080 xenograft tumor growth in male athymic nude mice. Format: in vivo. To be noted: study #24a; 10 mg/kg QD; in words. The text has this:
Experimental Design. HT1080 cells (5×10^6 cells/mouse) were implanted subcutaneously in male athymic nude mice. […] For comparison, Compound #10 was included in this study.

Turning to `O=C(Oc1ccc(Cl)cc1)N1CCc2c([nH]c3ccc(Cl)cc23)[C@H]1c1ccc(OCC[C@H](O)CO)cc1` [Compound 1330], the EC50 in assay [1] is more than 1000 nM. Moreover, the “Growth of HT1080 tumors in vivo (FIG. 4)” value in the assay with HT1080 xenografts is given as “overlapped with the growth of tumors in mice treated with 0.5% HPMC vehicle”.

Molecule `O=C(OCC1CCCC1)N1CCc2c([nH]c3ccc(Cl)cc23)[C@@H]1c1ccc(OC[C@H](O)CO)cc1` [Compound 1685] showed an EC50 in assay [1] of less than 8 nM.

As to `O=C(OCC1CCCC1)N1CCc2c([nH]c3ccc(Cl)cc23)[C@@H]1c1ccc(OC[C@@H](O)CO)cc1` [Compound 1686], the EC50 in assay [1] was less than 8 nM.

In the case of `CCC(CO)(CO)COc1ccc([C@H]2c3[nH]c4ccc(Cl)cc4c3CCN2C(=O)OCC2CCCC2)cc1` [Compound 1687], in assay [1], the EC50 is less than 8 nM.

In turn, `COc1ncc(C2NCCc3c2[nH]c2ccc(Cl)cc32)cn1` (centres unmarked) [Compound 1688] showed an EC50 in assay [1] of more than 1000 nM.

In assay [1], `COc1ncc(C2c3[nH]c4ccc(Cl)cc4c3CCN2C(=O)Oc2ccc(Cl)cc2)cn1` (centres unmarked) [Compound 1689] yielded an EC50 of 8 to 40 nM.

Molecule `COc1ncc(C2c3[nH]c4ccc(Cl)cc4c3CCN2C(=O)Oc2ccc(F)cc2)cn1` (centres unmarked) [Compound 1690] yielded an EC50 in assay [1] of 8 to 40 nM.

For `CCOC(=O)N1CCc2c([nH]c3ccc(Cl)cc23)C1c1cnc(OC)nc1` (centres unmarked) [Compound 1691], the EC50 in assay [1] lay in the range of 40 to 200 nM.

As to `CC#CCOC(=O)N1CCc2c([nH]c3ccc(Cl)cc23)C1c1cnc(OC)nc1` (centres unmarked) [Compound 1692], in assay [1], the EC50 was in the range of 8 to 40 nM.

For the molecule `O=C(OCCN1CCOCC1)N1CCC(Oc2ccc([C@H]3c4[nH]c5ccc(Cl)cc5c4CCN3C(=O)Oc3ccc(Cl)cc3)cc2)CC1` [Compound 1693], the EC50 in assay [1] was less than 8 nM.

The molecule `CN1CCC(Oc2ccc([C@H]3c4[nH]c5ccc(Cl)cc5c4CCN3C(=O)Oc3ccc(Cl)cc3)cc2)CC1` [Compound 1694] registered an EC50 in assay [1] of less than 8 nM.

For the molecule `CCOC(=O)N1CCc2c([nH]c3ccc(Cl)cc23)[C@@H]1c1ccc(OC2OC(CO)C(O)C(O)C2O)cc1` (some centres unmarked) [Compound 1696], the EC50 in assay [1] was more than 1000 nM.

In assay [1], `CC#CCOC(=O)N1CCc2c([nH]c3ccc(Cl)cc23)[C@@H]1c1ccc(OC2CCN(C[C@H](O)CO)CC2)cc1` [Compound 1697] had an EC50 of less than 8 nM.

Molecule `CCOC(=O)N1CCc2c([nH]c3ccc(Cl)cc23)[C@@H]1c1ccc(OC2COC2)cc1` [Compound 1699] displayed an EC50 in assay [1] of less than 8 nM.

Consider `CCOC(=O)N1CCc2c([nH]c3ccc(Cl)cc23)[C@@H]1c1ccc(Oc2ncc(CS(C)(=O)=O)s2)cc1` [Compound 1700], for which, in assay [1], the EC50 was less than 8 nM.

`O=C(Oc1ccc(Cl)cc1)N1CCc2c([nH]c3ccc(Cl)cc23)[C@@H]1c1ccc(OC2CCN(CC[C@H](O)CO)CC2)cc1` [Compound 1703] had an EC50 in assay [1] of 200 to 1000 nM.

As for `O=C(Oc1ccc(Cl)cc1)N1CCc2c([nH]c3ccc(Cl)cc23)[C@@H]1c1ccc(OC2CCN(C[C@H](O)CO)CC2)cc1` [Compound 1704], the EC50 in assay [1] lay in the range of 8 to 40 nM.

As to `CC#CCOC(=O)N1CCc2c([nH]c3ccc(Cl)cc23)[C@@H]1c1ccc(OC2CCN(CC[C@H](O)CO)CC2)cc1` [Compound 1705], the EC50 in assay [1] fell in the range of 40 to 200 nM.

The molecule `CCNC(=O)C(=O)N1CCc2c([nH]c3ccc(Cl)cc23)C1c1ccc(OC)cc1` (centres unmarked) [Compound 1706] had an EC50 in assay [1] of 40 to 200 nM.

Molecule `COc1ccc(C2c3[nH]c4ccc(Cl)cc4c3CCN2C(=O)C(=O)NC(C)C)cc1` (centres unmarked) [Compound 1707] came in with an EC50 in assay [1] of 40 to 200 nM.

In turn, `CCCNC(=O)C(=O)N1CCc2c([nH]c3ccc(Cl)cc23)C1c1ccc(OC)cc1` (centres unmarked) [Compound 1708] gave an EC50 in assay [1] of 200 to 1000 nM.

Turning to `COc1ccc(C2c3[nH]c4ccc(Cl)cc4c3CCN2C(=O)C(=O)NC2CCCC2)cc1` (centres unmarked) [Compound 1710], the EC50 in assay [1] lay within 40 to 200 nM.

As for `COc1ccc(C2c3[nH]c4ccc(Cl)cc4c3CCN2C(=O)C(=O)Nc2ccc(Cl)cc2)cc1` (centres unmarked) [Compound 1711], in assay [1], the EC50 lay within 8 to 40 nM.

Regarding `COc1ccc(C2c3[nH]c4ccc(Cl)cc4c3CCN2C(=O)C(=O)Nc2ccc(C)cc2)cc1` (centres unmarked) [Compound 1712], the 50% effective concentration (EC50) in assay [1] was 8 to 40 nM.

In turn, `COc1ccc(C2c3[nH]c4ccc(Cl)cc4c3CCN2C(=O)C(=O)Nc2ccc(F)cc2)cc1` (centres unmarked) [Compound 1713] came in with an EC50 in assay [1] of 40 to 200 nM.

Regarding `COc1ccc(C2c3[nH]c4ccc(Cl)cc4c3CCN2C(=O)C(=O)Nc2ccc(C#N)cc2)cc1` (centres unmarked) [Compound 1716], the EC50 in assay [1] was 200 to 1000 nM.

On to `COc1ccc(C2c3[nH]c4ccc(Cl)cc4c3CCN2C(=O)C(=O)OCC2CC2)cc1` (centres unmarked) [Compound 1717], for which the EC50 in assay [1] was in the range of 8 to 40 nM.

In turn, `COc1ccc(C2c3[nH]c4ccc(Cl)cc4c3CCN2C(=O)C(=O)OCC2CCC2)cc1` (centres unmarked) [Compound 1718] displayed an EC50 in assay [1] of 8 to 40 nM.

Molecule `COc1ccc(C2c3[nH]c4ccc(Cl)cc4c3CCN2C(=O)C(=O)OC2CCCC2)cc1` (centres unmarked) [Compound 1719] came in with an EC50 in assay [1] of more than 1000 nM.

On to `COc1ccc(C2c3[nH]c4ccc(Cl)cc4c3CCN2C(=O)C(=O)Oc2ccc(Cl)cc2)cc1` (centres unmarked) [Compound 1720], for which, in assay [1], the EC50 was more than 1000 nM.

For `COc1ccc(C2c3[nH]c4ccc(Cl)cc4c3CCN2C(=O)C(=O)Oc2ccc(C)cc2)cc1` (centres unmarked) [Compound 1721], in assay [1], the EC50 is more than 1000 nM.

For `COc1ccc(C2c3[nH]c4ccc(Cl)cc4c3CCN2C(=O)C(=O)Oc2ccc(F)cc2)cc1` (centres unmarked) [Compound 1722], the EC50 in assay [1] is more than 1000 nM.

The molecule `COc1ccc(OC(=O)C(=O)N2CCc3c([nH]c4ccc(Cl)cc34)C2c2ccc(OC)cc2)cc1` (centres unmarked) [Compound 1723] had an EC50 in assay [1] of more than 1000 nM.

`COc1ccc(C2c3[nH]c4ccc(Cl)cc4c3CCN2C(=O)C(=O)Oc2ccccc2)cc1` (centres unmarked) [Compound 1724] displayed an EC50 in assay [1] of more than 1000 nM.

The term EC50 denotes the concentration at which the effect is half-maximal. Read a low EC50 as a more potent agent.

Source of the values: patent US11613538B2, “Method of inhibiting or reducing a viral infection” (PTC Therapeutics, Inc., priority 2009, dated 2023).
